US20230364119A1, “AUTOPHAGY ACTIVATOR” (Resonac Corporation, priority 2020, published 2023)

Key:
[1] = test system: human neuroblastoma (SH-SY5Y); assay: Apoptosis suppressing action caused by amyloid β in human neuroblastoma (Hoechst 33342 staining); format: cell-based
Description: The proportion of apoptotic cells in human neuroblastoma (SH-SY5Y; obtained from ATCC) in the presence of an autophagy activator was measured by the following test method to evaluate the apoptosis suppressing action of the autophagy activator.
In the following examples and comparative examples, tests were performed by adding amyloid β, which is known to induce cell death called apoptosis of nerve cells due to a decrease in autophagy, to each medium.
(§1) SH-SY5Y cells were prepared at a seeding density of 50000 cells/cm^2 and cultured for 24 hours in D-MEM medium/Ham's F-12 medium (manufactured by Sigma-Aldrich) to which 10% fetal bovine serum (manufactured by MP Biomedicals) was added. […]
Thereafter, an aqueous solution of 10 μM Hoechst 33342 (manufactured by Sigma-Aldrich) was added to each SH-SY5Y cell from which the medium was removed, and the cells were allowed to stand at room temperature (25° C.) for 10 minutes. After removing the solution, each SH-SY5Y cell was washed with phosphate buffer (PBS, manufactured by FUJIFILM Wako Pure Chemical Corporation), and with a fluorescence microscope, the number of cells showing strong apoptosis-like Hoechst fluorescence due to chromatin aggregation (Hoechst (+) cells) was counted. […] For each example, relative values were calculated when the proportion of apoptotic cells in Reference Example 4 was set to 1.00, and the results are shown in Table 7.

ATG5 gene = ATG5 gene expression promoting effect in human neuroblastoma in the presence of amyloid β; format: cell-based
Description: In the presence of an autophagy activator, the expression levels of the LC3 gene, ATG5 gene, and Beclin 1 gene in human neuroblastoma (SH-SY5Y; obtained from ATCC) were measured by the following test method, and the effect of promoting the expression of the LC3 gene, ATG5 gene, and Beclin 1 gene by an autophagy activator was evaluated.
In the following examples and comparative examples, tests were performed by adding amyloid β, which is known to cause a decrease in autophagy in nerve cells, to each medium.
as §1, with “10000” for “50000”, “added. Next, in Example 15, the inositol derivative A dissolved in purified water was added to the medium such that the final concentration of the inositol derivative A was 10-4% (V/V).” for “added.”
Then, using Nucleospin (registered trademark) RNA kit (manufactured by Takara Bio Inc.), RNA was extracted from SH-SY5Y cells in each example, and cDNA was synthesized from the obtained RNA. Next, using this cDNA as a template, by quantitative real-time PCR, the expression level of each gene was quantified using primers (manufactured by Takara Bio Inc.) specific to the LC3 gene, ATG5 gene, and Beclin 1 gene, respectively. […]

O[C@H]1[C@H](O)[C@@H](O)[C@H](O)[C@@H](O)[C@H]1O [Comparative Example 2, myo-inositol]
proportion of apoptotic cells, in words ([1]; SH-SY5Y cells with amyloid β, compared to Comparative Example 7 (purified water and amyloid β)): almost the same
Proportion of apoptotic cells ([1]; SH-SY5Y cells, 30 μM amyloid β present, 48 hours, 10^−3% (V/V) inositol or inositol derivative A, with the vitamin derivative of the example where added, relative value, Reference Example 4 (purified water, no amyloid β) = 1.00): 3.98
expression level of the ATG5 gene, in words (ATG5 gene; SH-SY5Y cells with amyloid β, compared to Reference Example 3 (purified water only, no amyloid β)): slightly increased
Relative gene expression level ATG5 (ATG5 gene; SH-SY5Y cells, 20 μM amyloid β present, 48 hours, 10^−3% (V/V) inositol or inositol derivative A, with the vitamin derivative of the example where added, Reference Example 3 (purified water, no amyloid β) = 1.00): 1.39
